Assays:
Format in all cases: cell-based, pigs
Islets [1] = assay: Islet recovery rate after cryopreservation with polyphenol pre-incubation; settings: for islet recovery rate following cryopreservation: 2 hours incubation before freezing, 4 weeks in liquid nitrogen; for islet recovery rate after 48 hours of postcryopreservation tissue culture: 48 hours culture after thawing
Procedure: (§1) Islets were isolated from over two years old pigs (n=3). After overnight culture, a known number of islets were incubated for 2 hours in culture medium supplemented with polyphenol (epigallocatechin-gallate (EGCg) with more than 98% purity) at concentrations of 0 (control), 30, 60, 120 ug/ml. Islets were suspended in the same volume of cryopreservation solution containing 12% hydroxyethyl starch (HES) and 10% dimethyl sulfoxide (DMSO) with 8% […] (FBS), and then cryopreserved using a program freezing system^3. After 4 weeks storage in liquid nitrogen, islets were rapidly thawed in a hot water bath. We assessed the results on recovery rate (islet yield after thawing/islet yield before freezing) following cryopreservation and after 48 hours of postcryopreservation tissue culture, viability and functionality.

Islets [2] = assay: Viability of post-cryopreservation islets assessed using AO/PI; settings: for viability assessed using AO/PI: post-cryopreservation
Procedure: as §1

Islets [3] = assay: Functionality of post-cryopreservation islets (stimulation index, insulin secretion high/low glucose); settings: ratio of insulin secretion high vs low glucose medium
Procedure: as §1, with “functionality. […] The stimulation index represents a ratio of insulin secretion between high-concentration glucose culture medium and low-concentration glucose culture medium.” for “functionality.”

O=C(O[C@@H]1Cc2c(O)cc(O)cc2O[C@@H]1c1cc(O)c(O)c(O)c1)c1cc(O)c(O)c(O)c1 [polyphenol, epigallocatechin-gallate]
islet recovery rate following cryopreservation (Islets [1]; 30 ug/ml polyphenol): 66.5±3.3% | islet recovery rate after 48 hours of postcryopreservation tissue culture (Islets [1]; 30 ug/ml polyphenol): 45.3±0.3% | islet recovery rate following cryopreservation (Islets [1]; 60 ug/ml polyphenol): 76.9±5.2% | islet recovery rate after 48 hours of postcryopreservation tissue culture (Islets [1]; 60 ug/ml polyphenol): 68.0±3.0% | islet recovery rate following cryopreservation (Islets [1]; 120 ug/ml polyphenol): 74.5±2.9% | islet recovery rate after 48 hours of postcryopreservation tissue culture (Islets [1]; 120 ug/ml polyphenol): 54.6±3.3% | viability assessed using AO/PI (Islets [2]; 30 ug/ml polyphenol): 83.1±1.2 | viability assessed using AO/PI (Islets [2]; 60 ug/ml polyphenol): 85.9±2.5 | viability assessed using AO/PI (Islets [2]; 120 ug/ml polyphenol): 84.4±1.0 | viability following cryopreservation, compared with control (Islets [2]; polyphenol group vs control group, p<0.01): significantly higher than the control group | functionality indicated by stimulation index (Islets [3]; 30 ug/ml polyphenol): 1.4±0.2 | functionality indicated by stimulation index (Islets [3]; 60 ug/ml polyphenol): 1.4±0.3 | functionality indicated by stimulation index (Islets [3]; 120 ug/ml polyphenol): 0.9±0.3

From patent publication US20070259327A1, “Cryopreservation medium and cryopreservation method for tissues and cells” (BioVerde. Inc., priority 2006, published 2007)
